Experimental data: PubChem BioAssay (NCI)
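How tested: cells in 96-well plates exposed to compound for 48 hours at five concentrations. TGI: total growth inhibition.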

Assays:
Assay in all cases: inhibition of tumour cell growth, NCI panel, 48 h
[1] = test system: MCF7 breast
[2] = test system: A549 NSCLC
[3] = test system: MDA-MB-435
[4] = test system: DU-145 prostate
[5] = test system: 786-0 renal
[6] = test system: SK-MEL-28 melanoma
[7] = test system: SNB-19 CNS
[8] = test system: HCT-116 colon
[9] = test system: U251 CNS
[10] = test system: SW-620 colon
[11] = test system: MOLT-4 leukemia
[12] = test system: RXF 393 renal
[13] = test system: SK-MEL-2 melanoma
[14] = test system: A498 renal
[15] = test system: M14 melanoma
[16] = test system: SF-295 CNS
[17] = test system: SR leukemia
[18] = test system: BT-549 breast
[19] = test system: RPMI-8226 leukemia
[20] = test system: SNB-75 CNS
[21] = test system: HCT-15 colon
[22] = test system: HT29 colon
[23] = test system: HL-60(TB) leukemia
[24] = test system: MDA-N
[25] = test system: UACC-257 melanoma
[26] = test system: UACC-62 melanoma
[27] = test system: CAKI-1 renal
[28] = test system: MDA-MB-231 breast
[29] = test system: NCI-H226 lung
[30] = test system: SF-539 CNS
[31] = test system: COLO 205 colon
[32] = test system: SK-MEL-5 melanoma
[33] = test system: SK-OV-3 ovarian
[34] = test system: ACHN renal
[35] = test system: EKVX NSCLC
[36] = test system: IGROV1 ovarian
[37] = test system: OVCAR-4 ovarian
[38] = test system: HS 578T breast
[39] = test system: HOP-92 NSCLC
[40] = test system: NCI-H23 lung
[41] = test system: T-47D breast
[42] = test system: CCRF-CEM leukemia
[43] = test system: KM12 colon
[44] = test system: SN12C renal
[45] = test system: MALME-3M melanoma
[46] = test system: K-562 leukemia
[47] = test system: UO-31 renal
[48] = test system: OVCAR-5 ovarian
[49] = test system: SF-268 CNS
[50] = test system: NCI-H460 lung
[51] = test system: NCI-H522 lung
[52] = test system: TK-10 renal
[53] = test system: PC-3 prostate

Compound: Cc1cc(=O)[nH]c(-n2[nH]c3c(c2=O)CCCC3)n1
- TGI [1]: > 100 µM
- TGI [2]: > 100 µM
- TGI [3]: > 100 µM
- TGI [4]: > 100 µM
- TGI [5]: > 100 µM
- TGI [6]: > 100 µM
- TGI [7]: > 100 µM
- TGI [8]: > 100 µM
- TGI [9]: > 100 µM
- TGI [10]: > 100 µM
- TGI [11]: > 100 µM
- TGI [12]: 48.7 µM
- TGI [13]: > 100 µM
- TGI [14]: > 100 µM
- TGI [15]: > 100 µM
- TGI [16]: > 100 µM
- TGI [17]: > 100 µM
- TGI [18]: > 100 µM
- TGI [19]: > 100 µM
- TGI [20]: 9.37 µM
- TGI [21]: > 100 µM
- TGI [22]: > 100 µM
- TGI [23]: > 100 µM
- TGI [24]: > 100 µM
- TGI [25]: > 100 µM
- TGI [26]: > 100 µM
- TGI [27]: > 100 µM
- TGI [28]: > 100 µM
- TGI [29]: > 100 µM
- TGI [30]: > 100 µM
- TGI [31]: > 100 µM
- TGI [32]: > 100 µM
- TGI [33]: > 100 µM
- TGI [34]: > 100 µM
- TGI [35]: > 100 µM
- TGI [36]: > 100 µM
- TGI [37]: > 100 µM
- TGI [38]: > 100 µM
- TGI [39]: > 100 µM
- TGI [40]: > 100 µM
- TGI [41]: > 100 µM
- TGI [42]: > 100 µM
- TGI [43]: > 100 µM
- TGI [44]: > 100 µM
- TGI [45]: > 100 µM
- TGI [46]: > 100 µM
- TGI [47]: > 100 µM
- TGI [48]: > 100 µM
- TGI [49]: > 100 µM
- TGI [50]: > 100 µM
- TGI [51]: > 100 µM
- TGI [52]: > 100 µM
- TGI [53]: > 100 µM
